Data published in paper PMC4776135, “Small Molecule Inhibition of Ligand-Stimulated RAGE-DIAPH1 Signal Transduction” (Scientific Reports, 2016).

What was measured:
[1] = system: phospho/total ERK1/2 in primary murine aortic SMCs; assay: CML-AGE-stimulated ERK1/2 phosphorylation, Western blot; type: cell-based; conditions: 1 µM compound, 1.5 h pretreatment; CML-AGE 10 µg/ml 20 min; p < 0.05
Text: (§1) We tested the effects of compounds 1–13 on cellular signaling in primary murine aortic SMCs. […] In primary murine aortic SMCs, we tested the effects of CML-AGE RAGE ligand on Akt and ERK1/2 phosphorylation, as these pathways are seminally linked to fundamental properties of these cells and their responses to stress, such as growth, proliferation, hypertrophy, migration, and survival.
(§2) Figure 3 Effects of compounds 1–13 on RAGE ligand-stimulated phosphorylation of ERK and AKT in primary murine aortic SMCs. Primary murine SMCs were incubated with compounds 1–13 (1 μM) for 1.5 h and then treated with RAGE ligand CML-AGE (10 μg/ml) for 20 minutes. Cells were harvested and total lysates were subjected to Western blotting with antibodies against phospho-ERK and phospho-AKT. Blots were then re-probed with antibodies to total-ERK and total-AKT and relative optical density (ROD) is reported. (a) Quantified levels of phosphorylated/total ERK normalized to total ERK are shown. (b) Quantified levels of phosphorylated/total AKT normalized to total AKT are shown. Assays results shown are representative of three independent experiments. Error bars represent SEM. *indicates p < 0.05 comparing CML-AGE vs. CML-AGE and compound treatment and ^#indicates p < 0.001 comparing CML-AGE vs. serum free medium (SFM) alone vehicle. Above each Western blot, S = serum-free medium and C = CML-AGE; numbers above the blots indicate the compound number.
(§3) Total protein extracts were prepared from primary murine aortic smooth muscle cells using cell lysis buffer (Cell Signaling Technology, Beverly, MA). Equal amounts of protein (30 μg/sample) were subjected to SDS-PAGE (4–12%) followed by electrophoretic transfer to nitrocellulose membranes. Nonspecific binding was blocked by incubation of membranes with BSA (5%) for 1 h. The blot was incubated with one of the following antibodies as the primary antibody for the reaction: anti-phospho-ERK1/2 (P-ERK1/2) IgG, anti-total-ERK1/2 (T-ERK1/2) IgG, anti-phospho-AKT (P-AKT) IgG, and anti-total-AKT (T-AKT) IgG (Cell Signaling Technology). Each primary antibody was used at a dilution of 1:1,000 overnight at 4 °C according to the manufacturer’s instructions. Horseradish peroxidase-conjugated secondary antibodies (1:2,500; Amersham Biosciences) were used to identify sites of binding of each primary antibody.
(§4) Murine vascular SMCs were cultured from the aortas of 10-week old male mice using a modification of the procedure of Travo and Barret[68]. SMCs were cultured following an explant protocol in accordance with institutional guidelines. Wild-type murine aortic vascular SMCs were isolated and used between passages 8 to 12. Human aortic vascular smooth muscle cells were purchased from American Type Culture Collection (ATCC, Manassas, VA) and cultured according to the methods recommended by ATCC. Murine primary aortic endothelial cells were from 6- to 8-week-old wild-type C57BL/6J mice (Jackson Laboratories, Bar Harbor ME) and used under passage 10[69]. THP-1 cells were obtained from the American Type Tissue Collection (ATCC, Manassas VA) and used according to the manufacturer’s instructions.

Tnfa mRNA in kidney = assay: CML-AGE infusion in vivo, kidney Tnfa mRNA; set-up: species or system C57BL/6J mice; conditions: mice; four doses 5 mg/kg i.p. every 12 h; CML-AGE 150 µg i.p.; kidney 4 h later; p < 0.05
Procedure: Next, it was essential to test the ability of the thirteen compounds to block RAGE ligand-mediated inflammation in vivo. […] To test this concept in the present study, we treated wild-type mice with CML-AGE (150 μg) by intraperitoneal injection after pretreatment with four doses of compounds 1–13 (5 mg/kg per dose, 12 h apart). Thirty minutes after the fourth dose of compound, mice were injected with CML-AGE and sacrificed 4 h later. Kidney tissue was retrieved and subjected to real-time quantitative PCR for detection of transcripts encoding inflammatory mediators.
Figure 6 Effect of compounds 1–13 in vivo. (a,b) C57BL/6J mice were subjected to intraperitoneal administration of four doses of compounds 1–13 (5 mg/kg every 12 h) or equal volumes of vehicle (PBS). Thirty minutes after the final injection, mice were injected with CML-AGE (150 μg) by intraperitoneal administration. Four h later, mice were sacrificed and kidney was retrieved. Real time quantitative PCR was performed for detection of Tnfa (a) and Il6 (b). (c) Assessment of compounds on cardiac functional recovery in diabetes. C57BL/6 mice were rendered type 1 diabetic with streptozotocin. After a mean range of 37–45 days of untreated hyperglycemia, mice were sacrificed and hearts rapidly retrieved for assessment of the efficacy of compounds 1–13 (1 μM) or vehicle, DMSO, on left ventricular developed pressure (LVDP) after ischemia. All hearts were subjected to 30 minutes of global ischemia followed by 60 min of reperfusion. Test compounds were introduced 10 minutes prior to the start of ischemia and continued throughout the reperfusion protocol. In (a–c), N = 5–6 mice per group. Error bars represent SEM. In (a–c), *indicates p < 0.05 vs. respective control, and in (a,b), ^#indicates p < 0.001 comparing CML-AGE vs. PBS treatment.
(§5) Total RNA was extracted from cells and tissues using the RNeasy lipid kit (Qiagen, Hilden, Germany). cDNA was synthesized with MultiScribe reverse transcriptase (Applied Biosystems, Foster City, CA). Real-time quantitative PCR was performed using the TaqMan method (50 °C for 2 min, 95 °C for 10 min, and 40 cycles of 95 °C for 15 s and 60 °C for 1 min) with premade primer sets (Applied Biosystems). The relative abundance of transcripts was normalized according to the expression of 18S rRNA (for human cells) or β-actin (for murine cells and tissues) using the ΔΔCt method. Supplementary Table S4 lists the specific primers used in the outlined studies.
Male, wild-type C57BL/6J mice were purchased from the Jackson Laboratories. At age 8 weeks, mice were pretreated with 4 doses of compounds 1–13, 5 mg/kg, by intraperitoneal administration twice daily for a total of two days and four total doses. Control treatment consisted of DMSO diluted into PBS. Thirty minutes after the last dose, CML-AGE (150 μg) was injected by intraperitoneal route. 4 h later, mice were sacrificed and kidney tissue was rapidly retrieved for preparation of mRNA and performance of real time quantitative PCR for the following mRNA transcripts, Tnfa and Il6.

[2] = system: phospho/total Akt in primary murine aortic SMCs; assay: CML-AGE-stimulated Akt phosphorylation, Western blot; type: cell-based; conditions: 1 µM compound, 1.5 h pretreatment; CML-AGE 10 µg/ml 20 min; p < 0.05
Text: as §1, §2, §3, §4

[3] = system: Il6 mRNA in primary murine aortic endothelial cells (MAECs); assay: CML-AGE-mediated upregulation of Il6 mRNA, real-time quantitative PCR; type: cell-based; conditions: 1 µM compound 1.5 h, CML-AGE 10 µg/ml 6 h
Procedure: First, we tested the effects of RAGE ligand CML-AGE in primary murine aortic endothelial cells (MAECs). […] To assess the effects of the compounds, we pre-treated MAECs for 1.5 h with compounds 1–13 (1 μM).
Figure 5 Effects of compounds 1–13 on RAGE ligand-stimulated inflammatory gene expression in primary murine aortic endothelial cells and human THP-1 cells. Primary murine aortic endothelial cells (a,b) or human THP1 cells (c,d) were subjected to 1.5 h incubation with compounds 1–13 (1 μM) followed by stimulation with CML-AGE (10 μg/ml) for 6 h. Cells were then harvested and gene expression of the inflammatory markers Tnfα and Il6 normalized to β-actin (a,b) or 18s rRNA (c,d) was performed. Assays were performed in triplicate and results are representative of three independent experiments. Error bars represent SEM. *indicates p < 0.05 comparing CML-AGE vs. CML-AGE and compound treatment ^#indicates p < 0.001 comparing CML-AGE vs. SFM vehicle (SFM).
as §5

[4] = system: diabetic mouse heart (ex vivo); assay: Isolated perfused diabetic heart, ischemia/reperfusion, LVDP recovery; set-up: species or system C57BL/6 mice; conditions: streptozotocin-diabetic mouse hearts ex vivo; 1 µM compound; 30 min ischemia, 60 min reperfusion; p < 0.05
Procedure: Figure 6 Effect of compounds 1–13 in vivo. (a,b) C57BL/6J mice were subjected to intraperitoneal administration of four doses of compounds 1–13 (5 mg/kg every 12 h) or equal volumes of vehicle (PBS). Thirty minutes after the final injection, mice were injected with CML-AGE (150 μg) by intraperitoneal administration. Four h later, mice were sacrificed and kidney was retrieved. Real time quantitative PCR was performed for detection of Tnfa (a) and Il6 (b). (c) Assessment of compounds on cardiac functional recovery in diabetes. C57BL/6 mice were rendered type 1 diabetic with streptozotocin. […]
Finally, we tested the effects of these compounds in settings in which RAGE ligands naturally accumulate, particularly the diabetic heart. […] At the end of reperfusion, we measured left ventricular developed pressure (LVDP) in the hearts, a key measure of functional recovery after injury.
Male C57BL/6 mice, age 8–12 weeks, were purchased from The Jackson Laboratory and rendered diabetic by 55 mg/kg by intraperitoneal route of streptozotocin (STZ) (Sigma Aldrich, St. Louis MO) per day in fresh citrate buffer (0.05 mol/l; pH 4.5) for 5 consecutive days. […] Left ventricular developed pressure (LVDP) was measured using a latex balloon in the left ventricle and monitored continuously on an ADI recorder. […]

Row | Compound | effect on CML-AGE-mediated phospho/total ERK1/2 [1] | effect on CML-AGE-mediated upregulation of Tnfa mRNA in kidney (Tnfa mRNA in kidney) | effect on CML-AGE-mediated stimulation of phospho/total-Akt [2] | effect on CML-AGE-mediated upregulation of Il6 [3] | left ventricular developed pressure (LVDP) functional recovery after ischemia/reperfusion vs DMSO vehicle [4]
1 | COc1cc(SC)ccc1C(=O)Nc1cccc(C)n1 [Compound 1] | significant suppression | significant suppression | significant suppression | significant suppression | –
2 | C=CCOc1ccc2c(C(F)(F)F)cc(=O)oc2c1 [Compound 2] | significant suppression | significant suppression | significant suppression | significant suppression | –
3 | Cc1nc2ccccc2n1CC(O)Cn1c2ccccc2c2ccccc21 (centres unmarked) [Compound 3] | significant suppression | significant suppression | significant suppression | significant suppression | statistically-significantly higher LVDP
4 | OC(Cn1ccc2ccccc21)Cn1cnc2ccccc21 (centres unmarked) [Compound 4] | significant suppression | – | significant suppression | significant suppression | –
5 | Cl.Oc1cccc(Nc2nc(-c3ccc(F)cc3F)cs2)c1 [Compound 5] | significant suppression | significant suppression | did not significantly suppress | significant suppression | –
6 | COc1cc(NC(C)=O)c(Cl)cc1C(=O)Nc1nccs1 [Compound 6] | did not significantly affect | significant suppression | significant suppression | significant suppression | –
7 | COC(=O)c1cc(OC)c(OC)cc1NC(=O)C1Oc2ccccc2OC1C (centres unmarked) [Compound 7] | did not significantly affect | – | did not significantly suppress | significant suppression | statistically-significantly higher LVDP
8 | Cc1ccc(S(=O)(=O)N(C)C(F)F)cc1 [Compound 8] | did not significantly affect | significant suppression | did not significantly suppress | significant suppression | –
